# Measurements as given in patent US8211947B2, “Composition and method for treating and preventing musculoskeletal and connective tissue disorders” (priority 2008, dated 2012).
# Tests used:
# [1] = system: rheumatoid arthritis; assay: Case study: patient with rheumatoid arthritis treated orally; assay type: in vivo, human; conditions: same patient, NSAIDs taken during the first 5 weeks of the disease onset
# Protocol: This treatment was complemented with the regular practice of moderate physical exercises every 2-3 days, including exercises with weights, the application of cold or hot compresses, relaxation techniques, elevation of affected body parts, and at least 8 hours of sleep. Pain was treated with acetaminophen when needed. […] Then, the Omega 3-6-9 supplement was removed from the treatment and 100 mg niacin was added (Rite Aid Corporation, Harrisburg, Pa., USA) once a day during a week, twice a day for another week and 3 times daily for one more week (to a final dose of 300 mg/day). […] They never took DMARDs or steroids.
# [2] = system: undercarboxylated osteocalcin; conditions: healthy subjects, per day; cited from earlier work
# [3] = in fish and flax seed oils; cited from earlier work
# [4] = natural vitamin K; cited from earlier work
# [5] = system: osteoarthritis; conditions: subjects with OA, 3 g per day; cited from earlier work
compound,measurement,setting,value
CC(C)Cc1ccc(C(C)C(=O)O)cc1 (stereo not drawn) [ibuprofen],benefit of NSAIDs,[1],without any significative beneficial result
"CC1=C(C/C=C(\C)CCC[C@H](C)CCC[C@H](C)CCCC(C)C)C(=O)c2ccccc2C1=O [vitamin K1, 2-methyl-3-phytyl-1-4-naphthoquinone]",daily intake at which circulating undercarboxylated osteocalcin began to decrease,[2],300 µg
O=C(O)Cc1ccccc1Nc1c(Cl)cccc1Cl [diclofenac],benefit of NSAIDs,[1],without any significative beneficial result
vitamin K,solubility,[3],soluble
same,safe dose,[4],up to 15 milligrams per day
NC(=O)c1cccnc1 [nicotinamide],NSAID medication and joint mobility compared with placebo controls,[5],reduced their non-steroidal anti-inflammatory (NSAID) medication and increased joint mobility significantly
